Measured values reported in patent publication US8680091B2, “6-arylalkylamino-2,3,4,5-tetrahydro-1H-benzo[d]azepines as 5-HT2C receptor agonists” (Eli Lilly and Company, priority 2005, dated 2014).

Legend:
Wistar rats [1] = conditions: clinically effective OCD treatment standard compounds; cited from earlier work
male NIH Swiss mice [2] = experiment: Marble burying assay (with rotorod); assay type: in vivo, mouse; conditions: marbles buried in 30 min, rotorod for motor impairment
Source text: Marble burying in mice has been used to model anxiety disorders including obsessive-compulsive disorders (OCD) due to ethological study of the behavior (e.g. Gyertyan I. “Analysis of the marble burying response: Marbles serve to measure digging rather than evoke burying”, Behavioural Pharmacology 6: 24-31, (1995)) and due to the pharmacological effects of clinical standards (c.f., Njung'E K. Handley S L. “Evaluation of marble-burying behavior as a model of anxiety”, Pharmacology, Biochemistry & Behavior. 38: 63-67, (1991)); Borsini F., Podhorna J., and Marazziti, D. “Do animal models of anxiety predict anxiolytic effects of antidepressants?”, Psychopharmacology 163: 121-141, (2002)).
House experimentally-naïve male, NIH Swiss mice (Harlan Sprague-Dawley, Indianapolis, Ind.) weighing between 28-35 g in groups of 12 for at least three days prior to testing in a vivarium with 12 h light and dark cycles. Conduct experiments during the light cycle in a dimly lit experimental testing room. Dose mice with vehicle or test compound and, after a specified pretreatment interval (generally 30 min.), place each mouse individually on a rotorod (Ugo Basile 7650) operating at a speed of 6 revolutions/min. and observe for falling. […]
Clinically effective standard compounds suppress marble burying at doses that are devoid of motor-impairing effects as measured on the rotorod. […]

male NIH Swiss mice [3] = experiment: Nestlet shredding; assay type: in vivo, mouse; conditions: 30 min, rotorod for motor impairment
Source text: Mice naturally will construct nests of material available in their living environment. Since this behavior is obsessive in nature, it has been used to model OCD (Xia Li, Denise Morrow and Jeffrey M. Witkin, “Decreases in nestlet shredding of mice by serotonin uptake inhibitors: comparison with marble burying”, Psychopharmacology, submitted Jul. 14, 2003). House experimentally-naïve male, NIH Swiss mice (Harlan Sprague-Dawley, Indianapolis, Ind.) weighing between 28-35 g in groups of 12 for at least three days prior to testing in a vivarium with a 12 h light/dark cycle. Conduct experiments during the light cycle in an experimental room with normal overhead fluorescent lighting. Dose mice with vehicle or test compound and after a specified pretreatment interval (generally 30 min.), place the mice individually in a 17×28×12 cm high plastic tub with about 5 mm sawdust shavings on the floor along with a pre-weighed multi-ply gauze pad (51 mm square). After 30 min., weigh the remainder of the gauze pad not removed by the mouse. Determine the weight of the gauze used for nestlet construction by subtraction. Compare the results for test compound treated mice to the results for vehicle control treated mice with Dunnett's test.
Clinically effective OCD treatment standard compounds suppress nestlet shredding at doses that are devoid of motor-impairing effects as measured by the rotorod test. […]

Wistar rats [4] = experiment: Schedule-induced polydipsia; assay type: in vivo, rat
Source text: Schedule-Induced Polydipsia
Food-deprived rats exposed to intermittent presentations of food will drink amounts of water that are far in excess of their normal daily intake and in excess of their intake when given all of their food at one time (Falk J L. “Production of polydipsia in normal rats by an intermittent food schedule”, Science 133: 195-196, (1961)). This excessive behavior is persistent and has been used to model OCD.
Maintain Wistar rats on a food restricted diet (to maintain 85% free feeding weight), but with free access to water. Train the rats in a behavioral testing chamber to press a lever to receive a food pellet under a fixed interval schedule, such that the rats are rewarded with a 45 mg food pellet the first time they press a lever after a 120 second interval has elapsed. The fixed interval is then reset to 120 seconds and the process repeated. Thus, during a 90 min. test session, the rats can earn a maximum of 45 pellets. The behavioral chamber is also equipped with a water bottle that is weighed before and after the session to determine the amount of water consumed.
Administer test compounds on Tuesdays and Fridays. […] Compare the rates of lever pressing and water consumption for each animal's performance during sessions after test compound treatment with that animal's performance during control sessions, expressed as a percent of the control rate. […]

male NIH Swiss mice [5] = conditions: compounds used to treat OCD, literature; cited from earlier work

CN(C)CCCN1c2ccccc2CCc2ccc(Cl)cc21 [chlomipramine]
Schedule-induced polydipsia (clinical standards) (Wistar rats [1]): suppress schedule-induced polydipsia without producing notable changes in motor patterns, food intake, or behavior the following day

CN(C)CCCN1c2ccccc2Sc2ccc(Cl)cc21 [chlorpromazine]
Marble burying (male NIH Swiss mice [2]): decrease marble burying only at doses that also disrupt rotorod performance

C[C@H](N)Cc1ccccc1 [d-amphetamine]
Nestlet shredding (male NIH Swiss mice [3]): decreases nestlet shredding only at doses that produce motoric side effects
Effect on schedule-induced polydipsia with co-administered 5-HT2C antagonist (Wistar rats [4]; co-administration of the 5-HT2C receptor antagonist): not prevented by the 5HT2C receptor antagonist
Schedule-induced polydipsia (water consumption) (Wistar rats [4]; food-restricted rats, 90 min session): decreases excessive drinking only at behaviorally stimulating doses

CNCCC(Oc1ccc(C(F)(F)F)cc1)c1ccccc1 (stereo not shown) [fluoxetine]
Schedule-induced polydipsia (clinical standards) (Wistar rats [1]): suppress schedule-induced polydipsia without producing notable changes in motor patterns, food intake, or behavior the following day
Marble burying (clinical standards) (male NIH Swiss mice [5]): decrease burying
